Molecular target: T1, PLK4 (Homo sapiens, UniProt O00444)
T1 sequence (O00444 1-970): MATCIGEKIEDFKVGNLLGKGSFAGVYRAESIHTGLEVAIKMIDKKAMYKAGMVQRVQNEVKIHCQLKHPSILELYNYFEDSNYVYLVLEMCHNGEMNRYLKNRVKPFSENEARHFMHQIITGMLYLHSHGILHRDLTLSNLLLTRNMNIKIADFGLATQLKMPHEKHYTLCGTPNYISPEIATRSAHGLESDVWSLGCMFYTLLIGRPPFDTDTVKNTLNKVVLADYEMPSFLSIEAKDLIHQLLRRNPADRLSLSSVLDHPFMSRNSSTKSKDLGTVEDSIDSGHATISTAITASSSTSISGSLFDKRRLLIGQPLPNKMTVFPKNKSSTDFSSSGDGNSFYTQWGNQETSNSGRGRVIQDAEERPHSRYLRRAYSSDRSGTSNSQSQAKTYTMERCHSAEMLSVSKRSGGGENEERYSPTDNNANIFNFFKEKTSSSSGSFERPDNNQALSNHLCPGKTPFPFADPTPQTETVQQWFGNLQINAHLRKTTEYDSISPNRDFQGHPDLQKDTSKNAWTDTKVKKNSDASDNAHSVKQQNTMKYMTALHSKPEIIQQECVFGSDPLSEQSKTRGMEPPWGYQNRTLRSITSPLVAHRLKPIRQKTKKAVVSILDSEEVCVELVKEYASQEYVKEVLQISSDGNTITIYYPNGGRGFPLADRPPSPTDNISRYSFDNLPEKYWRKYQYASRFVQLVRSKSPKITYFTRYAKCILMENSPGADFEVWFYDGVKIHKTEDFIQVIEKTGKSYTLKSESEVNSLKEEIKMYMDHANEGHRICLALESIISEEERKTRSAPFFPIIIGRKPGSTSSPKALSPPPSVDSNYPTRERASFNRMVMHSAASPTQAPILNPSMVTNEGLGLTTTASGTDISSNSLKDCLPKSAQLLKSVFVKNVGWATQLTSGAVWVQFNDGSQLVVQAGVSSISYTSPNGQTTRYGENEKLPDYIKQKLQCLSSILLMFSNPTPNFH
Test: Activity (IC50) of the Table 1 compounds as PLK4 inhibitors
Assay type: biochemical
Settings: Table 1, IC50 class

IC50, < 100 nM:
CC(=O)Nc1ccc(Sc2nc3c(c(Nc4cc(C)[nH]n4)n2)C(C)CC3)cc1 (centres unmarked), Cc1cc(Nc2nc(Sc3ccc(NC(=O)C4CCCC4)cc3)nc3c2C(C)CC3)n[nH]1 (centres unmarked), COc1c(Nc2cc(C)[nH]n2)nc(Sc2ccc(NC(=O)C3CC3)cc2)nc1N1CCN(C(C)C)CC1, COc1ccc(CN(C)CCC2CCN(c3nc(Sc4ccc(S(=O)(=O)C(C)(C)c5cc(Cl)cc([N+](=O)[O-])c5F)cc4F)nc(Nc4cc(C)[nH]n4)c3OC)CC2)cc1, COc1c(Nc2cc(C)[nH]n2)nc(Sc2ccc(S(=O)(=O)C(C)(C)c3c(F)c(F)cc(F)c3F)cc2F)nc1N1CCC(N(C)C)CC1, COc1c(Nc2cc(C)[nH]n2)nc(Sc2ccc(S(=O)(=O)Cc3c(F)c(F)cc(Cl)c3F)cc2F)nc1N1CCOCC1, COc1c(Nc2cc(C)[nH]n2)nc(Sc2ccc(S(=O)(=O)Cc3c(F)c(F)cc(Cl)c3F)cc2F)nc1N1CCN(CCN(C)C)CC1, COc1c(Nc2cc(C)[nH]n2)nc(Sc2ccc(S(=O)(=O)Cc3c(F)c(F)cc(Cl)c3F)cc2F)nc1N1CCC(CCN(C)C)CC1, COC(=O)CC1CCN(c2nc(Sc3ccc(S(=O)(=O)C(C)(C)c4cccc([N+](=O)[O-])c4F)cc3F)nc(Nc3cc(C)[nH]n3)c2OC)CC1, COc1c(Nc2cc(C)[nH]n2)nc(Sc2ccc(S(=O)(=O)C(C)(C)c3cccc([N+](=O)[O-])c3F)cc2F)nc1N1CCC(CC(=O)O)CC1, COc1c(Nc2cc(C)[nH]n2)nc(Sc2ccc(S(=O)(=O)C(C)(C)c3cccc([N+](=O)[O-])c3F)cc2F)nc1N1CCC(N(C)C)C1 (centres unmarked), COc1c(Nc2cc(C)[nH]n2)nc(Sc2ccc(S(=O)(=O)C(C)(C)c3cccc([N+](=O)[O-])c3F)cc2F)nc1N1CCC(OC)C1 (centres unmarked), COc1c(Nc2cc(C)[nH]n2)nc(Sc2ccc(S(=O)(=O)C(C)(C)c3cccc([N+](=O)[O-])c3F)cc2F)nc1N1CCC(CCO)CC1, COCCC1CCN(c2nc(Sc3ccc(S(=O)(=O)C(C)(C)c4cccc([N+](=O)[O-])c4F)cc3F)nc(Nc3cc(C)[nH]n3)c2OC)CC1, COc1c(Nc2cc(C)[nH]n2)nc(Sc2ccc(S(=O)(=O)C(C)(C)c3cccc([N+](=O)[O-])c3F)cc2F)nc1N1CCN(C(=O)CN(C)C)CC1, COc1c(Nc2cc(C)[nH]n2)nc(Sc2ccc(S(=O)(=O)C(C)(C)c3c(F)c(F)cc(Cl)c3F)cc2F)nc1N1CCOCC1, COc1c(Nc2cc(C)[nH]n2)nc(Sc2ccc(S(=O)(=O)C(C)(C)c3cccc([N+](=O)[O-])c3F)cc2F)nc1N1CCC(CCN)CC1, COc1c(Nc2cc(C)[nH]n2)nc(Sc2ccc(S(=O)(=O)Cc3c(F)c(F)c(F)c(F)c3F)cc2F)nc1N1CCOCC1, CNCCC1CCN(c2nc(Sc3ccc(S(=O)(=O)C(C)(C)c4cccc([N+](=O)[O-])c4F)cc3F)nc(Nc3cc(C)[nH]n3)c2OC)CC1, COc1c(Nc2cc(C)[nH]n2)nc(Sc2ccc(S(=O)(=O)C(C)(C)c3c(F)c(F)c(F)c(F)c3F)cc2F)nc1N1CCOCC1, COc1c(Nc2cc(C)[nH]n2)nc(Sc2ccc(S(=O)(=O)C(C)(C)C)cc2)nc1N1CCN(CCN(C)C)CC1, COc1c(Nc2cc(C)[nH]n2)nc(Sc2ccc(S(=O)(=O)C(C)(C)c3cccc([N+](=O)[O-])c3F)cc2F)nc1N1CCC(NC(C)=O)CC1, COc1c(Nc2cc(C)[nH]n2)nc(Sc2ccc(S(=O)(=O)C(C)(C)c3cccc([N+](=O)[O-])c3F)cc2F)nc1N1CC[C@H](NC(C)=O)C1, COc1c(Nc2cc(C)[nH]n2)nc(Sc2ccc(S(=O)(=O)C(C)(C)c3cccc([N+](=O)[O-])c3F)cc2F)nc1N1CCN(CC(=O)N(C)C)CC1, COc1c(Nc2cc(C)[nH]n2)nc(Sc2ccc(S(=O)(=O)C(C)(C)c3cccc([N+](=O)[O-])c3F)cc2F)nc1N1CC[C@H](N(C)C)C1, COc1c(Nc2cc(C)[nH]n2)nc(Sc2ccc(S(=O)(=O)C(C)(C)c3cccc([N+](=O)[O-])c3F)cc2F)nc1N1CC[C@@H](N(C)C)C1

— US11612604B2, “Methods of treating cancer with PLK4 inhibitors” (LUDWIG INSTITUTE FOR CANCER RESEARCH LTD, priority 2017, dated 2023)
